This is an account of results in patent US5405843A, “Quinoline derivatives” (Mitsui Toatsu Chemicals, Incorporated, priority 1988, dated 1995).

In this assay the test system is Adriamycin resistant strain 2780 AD cells of human ovarian cancer A2780 cells. Kind of assay: Potentiating effect on incorporation of 3H-vincristine into adriamycin-resistant cancer cells. In kind it is cell-based. Particulars: 20 nM 3H-vincristine; for activity at 1 µg/mL / activity at 10 µg/mL: Homo sapiens, 2780AD, 2 h, control = 100, read-out: 3H-vincristine accumulation; for activity at 10 µg/mL: compound 10 μg/ml. Here is the method:
Potentiating Effect of the Compounds on Incorporation of Anticancer Drugs into Drug-resistant Cancer Cells
Adriamycin resistant strain 2780 AD cells of human ovarian cancer A2780 cells (A. M. Rogan et al., Science 224, 994-996, 1984) were suspended at a concentration of 1×10^6 /ml in RPMI-1640 medium supplemented with 5% fetal calf serum, and 1 ml of the cancer cell suspension was dispensed into each well of a multi-well culture plate (24 wells, […] in diameter) and then incubated at 37° C. in an atmosphere of 5% CO2. After 24 hours incubation, the medium in each well was replaced by 0.5 ml of RPMI-1640 medium supplemented containing 20 nM ^3 H-vincristine (1×10^4 dpm/pmol), 5% fetal calf serum and 10 mM Hepes buffer. Five microliters of a solution of the compound to be tested, which had been dissolved in DMSO and diluted with […] (at a concentration of 1.0 microgram/ml or 10.0 micrograms/ml), was added to each well and the incubation was continued at 37° C. in 5% CO2 for 2 hours. The resultant cells were washed in cold saline-phosphate buffer. In each well was added 0.5 ml of 0.2N NaOH, and the resulting cell suspension in each well was independently transferred into a vial and then heated in a water bath at 56° C. for 30-60 minutes to dissolve the cells. After adding 4 ml of acid aquazole 2, the amount of ^3 H-vincristine incorporated into the cells was determined by a fluid scintillation counter.

`OC(COc1cccc2ncccc12)CN1CCC(C(c2ccccc2)c2ccccc2)CC1` (stereo not drawn) [Example 14, 5-[3-(4-(Diphenylmethyl)piperidine-1-yl)-2-hydroxypropoxy]quinoline]: the activity at 10 µg/mL was 871%. Moreover, the activity at 1 µg/mL (compound 1 μg/ml) was found to be 119%.
On the same counts, the results for `OC(COc1cccc2nc(Cl)ccc12)CN1CCC(C(O)(c2ccccc2)c2ccccc2)CC1` (stereo not drawn) [Example 19, 5-[3-(4-(Diphenyl-hydroxymethyl)piperidine-1-yl)-2-hydroxypropoxy]-2-chloroquinoline] are 524% and 374%.
For `Cc1ccc2ncccc2c1OCC(O)CN1CCN(C(c2ccccc2)c2ccccc2)CC1` (stereo not drawn) [Example 23, 5-[3-(4-Diphenylmethylpiperazine-1-yl)-2-hydroxypropoxy]-6-methylguinoline], the activity at 1 µg/mL (compound 1 μg/ml) was determined as 723%.
`Cc1ccc(OCC(O)CN2CCN(C(c3ccccc3)c3ccccc3)CC2)c2cccnc12` (stereo not drawn) [Example 24, 5-[3-(4-Diphenylmethylpiperazine-1-yl)-2-hydroxypropoxy]-8-methylquinoline]: the activity at 10 µg/mL amounted to 931%. In addition, the activity at 1 µg/mL (compound 1 μg/ml) stood at 146%.
For `COc1ccc(OCC(O)CN2CCN(C(c3ccccc3)c3ccccc3)CC2)c2cccnc12` (stereo not drawn) [Example 25, 5-[3-(4-Diphenylmethylpiperazine-1-yl)-2-hydroxypropoxy]-8-methoxyquinoline], the activity at 1 µg/mL (compound 1 μg/ml) worked out at 858%.
For the compound `O=[N+]([O-])c1ccc(OCC(O)CN2CCN(C(c3ccccc3)c3ccccc3)CC2)c2cccnc12` (stereo not drawn) [Example 26, 5-[3-(4-Diphenylmethylpiperazine-1-yl)-2-hydroxypropoxy]-8-nitroquinoline], for the setting “compound 1 μg/ml”, the activity at 1 µg/mL amounted to 177%.
The same measure, in the same setting: the figure for `OC(COc1ccc(Cl)c2ncccc12)CN1CCN(C(c2ccccc2)c2ccccc2)CC1` (stereo not drawn) [Example 29, 5-[3-(4-Diphenylmethylpiperazine-1-yl)-2-hydroxypropoxy]-8-chloroquinoline] is 246%; for `CN(CC(O)CN1CCN(C(c2ccccc2)c2ccccc2)CC1)c1cccc2ncccc12` (stereo not drawn) [Example 30, N-[3-(4-Diphenylmethylpiperazine-1-yl)-2-hydroxypropyl]-N-methyl-5-quinolineamine] it is 597%.
As for `OC(CSc1cccc2ncccc12)CN1CCN(C(c2ccccc2)c2ccccc2)CC1` (stereo not drawn) [Example 31, 5-[3-(4-Diphenylmethylpiperazine-1-yl)-2-hydroxypropylthio]quinoline], the activity at 10 µg/mL was determined as 799%. The 3H-vincristine accumulation (compound 1 μg/ml, 2 hours, control = 100, 120 min) was 428%.
Turning to `c1ccc(C(c2ccccc2)N2CCN(CCCCOc3cccc4ncccc34)CC2)cc1` [Example 33, 5-[4-(4-Diphenylmethylpiperazine-1-yl)butoxy]quinoline], the activity at 1 µg/mL (compound 1 μg/ml) came to 447%.
For the compound `CN(C(=O)CCN1CCN(C(c2ccccc2)c2ccccc2)CC1)c1cccc2ncccc12` [Example 37, 5-[N-Methyl-(3-(4-diphenylmethylpiperazine-1-yl)propionamido)]quinoline], the activity at 10 µg/mL amounted to 1000%. For the same compound, the activity at 1 µg/mL (compound 1 μg/ml) stood at 549%.
Taken in the same sequence, the figures for `CN(C(=O)CCN1CCN(C2c3ccccc3CCc3ccccc32)CC1)c1cccc2ncccc12` [Example 38, 5-[N-methyl-(3-(4-dibenzosuberanylpiperazine-1-yl)-propionamide)]quinoline] were 819% and 378%.
Taken in the same sequence, the figures for `CC(=O)OC(CN1CCN(C(c2ccccc2)c2ccccc2)CC1)CN(C(C)=O)c1cccc2ncccc12` (stereo not drawn) [Example 39, 5-[N-Acetyl-(2-acetoxy-3-(4-diphenylmethylpiperazine-1-yl)propylamino)]quinoline] were 908% and 236%.
`CC(=O)N(CC(O)CN1CCN(C(c2ccccc2)c2ccccc2)CC1)c1cccc2ncccc12` (stereo not drawn) [Example 40, 5-[N-Acetyl-(3-(4-diphenylmethylpiperazine-1-yl)-2-hydroxypropylamino)]quinoline]: the activity at 1 µg/mL (compound 1 μg/ml) is 259%.
The same measure, in the same setting: the figure for `OC(COc1cccc2cnccc12)CN1CCN(C(c2ccccc2)c2ccccc2)CC1` (stereo not drawn) [Example 43, 5-[3-(4-Diphenylmethylpiperazine-1-yl)-2-hydroxypropoxy]isoquinoline] is 531%.
Turning to `OC(COc1cccc2cnccc12)CN1CCCN(C(c2ccccc2)c2ccccc2)CC1` (stereo not drawn) [Example 45, 5-[3-(4-Diphenylmethylhomopiperazine-1-yl)-2-hydroxypropoxy]isoquinoline], the activity at 10 µg/mL came out at 982%. In addition, the activity at 1 µg/mL (compound 1 μg/ml) turned out to be 307%.
In the case of `OC(COc1ccnc2ccccc12)CN1CCN(C(c2ccccc2)c2ccccc2)CC1` (stereo not drawn) [Example 46, 4-[3-(4-Diphenylmethylpiperazine-1-yl)-2-hydroxypropoxy]quinoline], the activity at 10 µg/mL turned out to be 987%. Further, the activity at 1 µg/mL (compound 1 μg/ml) is 142%.
Taken in the same sequence, the figures for `OC(COc1cccc2ccncc12)CN1CCN(C(c2ccccc2)c2ccccc2)CC1` (stereo not drawn) [Example 47, 8-[3-(4-Diphenylmethylpiperazine-1-yl)-2-hydroxypropoxy]isoquinoline] were 879% and 322%.
On the same counts, the results for `OC(COc1nccc2ccccc12)CN1CCN(C(c2ccccc2)c2ccccc2)CC1` (stereo not drawn) [Example 48, 1-[3-(4-Diphenylmethylpiperazine-1-yl)-2-hydroxypropoxy]isoquinoline] are 798% and 215%.
Taken in the same sequence, the figures for `OC(COc1cccc2cccnc12)CN1CCN(C(c2ccccc2)c2ccccc2)CC1` (stereo not drawn) [Example 49, 8-[3-(4-Diphenylmethylpiperazine-1-yl)-2-hydroxypropoxy]-quinoline] were 612% and 213%.
For the compound `OC(COc1cccc2nccnc12)CN1CCN(C(c2ccccc2)c2ccccc2)CC1` (stereo not drawn) [Example 50, 5-[3-(4-Diphenylmethylpiperazine-1-yl)-2-hydroxypropoxy]quinoxaline], the activity at 10 µg/mL was 668%. In addition, the activity at 1 µg/mL (compound 1 μg/ml) came out at 559%.
As to `OC(COc1cccc2ncncc12)CN1CCN(C(c2ccccc2)c2ccccc2)CC1` (stereo not drawn) [Example 51, 5-[3-(4-Diphenylmethylpiperazine-1-yl)-2-hydroxypropoxy]quinazoline], the activity at 10 µg/mL stood at 798%. In addition, the activity at 1 µg/mL (compound 1 μg/ml) came out at 534%.
Turning to `OC(COc1cccc2ncccc12)CN1CCN(C(c2ccccc2)c2ccncc2)CC1` (stereo not drawn) [Example 52, 5-(3-[4-((4-Pyridyl) -phenylmethyl)piperazine-1-yl]-2-hydroxypropoxy)quinoline], the activity at 10 µg/mL turned out to be 910%. Further, the activity at 1 µg/mL (compound 1 μg/ml) is 379%.
Taken in the same sequence, the figures for `Cc1cc(C(F)(F)F)nc2cccc(OCC(O)CN3CCN(C4c5ccccc5CCc5ccccc54)CC3)c12` (stereo not drawn) [Example 54, 2-Trifluoromethyl-4-methyl-5-[3-(4-(dibenzosuberane-5-yl)piperazine-1-yl)-2-hydroxypropoxy]quinoline] were 777% and 253%.
On the same counts, the results for `Cc1cc(C(F)(F)F)nc2cccc(OCC(O)CN3CCN(C(c4ccccc4)c4ccccc4)CC3)c12` (stereo not drawn) [Example 56, 2-Trifluoromethyl-4-methyl-5-[3-(4-diphenylmethylpiperazine-1-yl)-2-hydroxypropoxy]quinoline] are 735% and 321%.
